# Legend:
# [1] = system: patients with gout and a history of major cardiovascular diseases; assay: eGFR over time by average serum uric acid concentration, analysis of clinical trial data; format: in vivo, human; conditions: for eGFR Mean (95% CI): allopurinol group
# Protocol: (§1) In order to evaluate non-inferiority of febuxostat to allopurinol related to cardiovascular risk, a clinical trial was designed and proceeded.
# (§2) A multicenter, randomized, double-blind non-inferiority trial was performed. The details of the clinical trial design have been published previously. An independent data and safety monitoring committee with access to unblinded data monitored the clinical trial. The statistical analysis for the data and the safety monitoring committee was performed by an independent statistical group (WebbWrites).
# (§3) The patients were regarded as having a history of major cardiovascular diseases, if they had myocardial infarction, hospitalization for unstable angina, stroke, hospitalization for transient ischemic attack, peripheral vascular disease, or diabetes mellitus symptoms. All participants provided a prior informed consent form.
# (§4) The patients were randomly assigned so that they received febuxostat or allopurinol administered once a day in a double-blind manner. The randomization was stratified according to the estimated creatinine clearance at baseline (patient group having an estimated creatinine clearance ≥60 ml per minute vs patient group having an estimated creatinine clearance ≥30 and <60 ml per minute).
# (§5) The dose of allopurinol was modified according to a kidney function. The patients with the estimated creatinine clearance 60 ml or more per minute i) initially received allopurinol at a dose of 300 mg once a day, and the dose was increased in 100 mg increments monthly until the patient had the serum uric acid concentration of less than 6.0 mg per deciliter or the dosage of allopurinol was 600 mg once a day. The patient having the estimated creatinine clearance of 30 ml or more and less than 60 ml per minute initially received 200 mg of allopurinol, and then the dose was increased in 100 mg increments until the patient either had the serum uric acid concentration of less than 6.0 mg per deciliter or was receiving the allopurinol dose of 400 mg once daily.
# (§6) The dose of febuxostat was not modified according to the kidney function. The patients who were randomly assigned to receive febuxostat initially received 40 mg once a daily, and continued to receive the same dosage if the serum uric acid concentration was less than 6.0 mg per deciliter after 2 weeks of the treatment. If the serum uric acid concentration was higher than 6.0 mg per deciliter at 2nd week visit, the dose of febuxostat was increased to 80 mg once daily for the remainder of the trial.
# (§7) During the period, the administration of a double-blind and double-dummy trial medications was guided by an interactive voice-response system which was a procedure to prevent unblinding for the patients whose dose was not adjusted. After completing dose adjustment, the urate level was concealed from the investigators, and the treatment was managed throughout the trial using the interactive voice-response system.
# (§8) Outpatient visits were conducted according to the following schedule: during screening and randomization, and at 2, 4, 6, 8, 10, 12, and 24 weeks after the randomization, and every 6 months during the subsequent years of the trial. The patients with reduced kidney function or, the patients aged 65 years or older at randomization were visited at 9 and 15 months for monitoring the serum chemical profile. If the patient agreed to be monitored, but would not return for study visit, telephone contact was made, but such method was not preferred or recommended.
# In order to confirm the effect of allopurinol and febuxostat on the kidney disease, the data obtained in the clinical trial described above was analyzed.
# [2] = system: patients with gout and a history of major cardiovascular diseases; assay: clinical trial febuxostat vs allopurinol: serum uric acid, gout flare, treatment discontinuation; format: in vivo, human; conditions: overall, during the trial
# Protocol: as §1, §2, §3, §4, §5, §6, §7, §8
# [3] = cited from earlier work
compound,measurement,setting,value
Oc1ncnc2[nH]ncc12 [allopurinol],eGFR Mean (95% CI),"[1]; No congestive cardiac failure history, Average UA <6, Month 3",67.32 (66.24-68.40) ml/min/1.73 m^2
same,eGFR Mean (95% CI),"[1]; No congestive cardiac failure history, Average UA <6, Month 12",68.74 (67.63-69.86) ml/min/1.73 m^2
same,eGFR Mean (95% CI),"[1]; No congestive cardiac failure history, Average UA <6, Month 18",68.64 (67.39-69.88) ml/min/1.73 m^2
same,eGFR Mean (95% CI),"[1]; No congestive cardiac failure history, Average UA <6, Month 24",68.73 (67.42-70.03) ml/min/1.73 m^2
same,eGFR Mean (95% CI),"[1]; No congestive cardiac failure history, Average UA <6, Month 30",69.45 (68.01-70.89) ml/min/1.73 m^2
same,eGFR Mean (95% CI),"[1]; No congestive cardiac failure history, Average UA <6, Month 36",68.02 (66.49-69.55) ml/min/1.73 m^2
same,eGFR Mean (95% CI),"[1]; No congestive cardiac failure history, Average UA <6, Month 42",67.59 (65.93-69.25) ml/min/1.73 m^2
same,eGFR Mean (95% CI),"[1]; No congestive cardiac failure history, Average UA <6, Month 48",68.44 (66.56-70.31) ml/min/1.73 m^2
same,eGFR Mean (95% CI),"[1]; No congestive cardiac failure history, Average UA <6, Month 54",67.90 (65.79-70.00) ml/min/1.73 m^2
same,eGFR Mean (95% CI),"[1]; No congestive cardiac failure history, Average UA <6, Month 60",68.53 (66.05-71.01) ml/min/1.73 m^2
same,eGFR Mean (95% CI),"[1]; No congestive cardiac failure history, Average UA <6, Week 2",66.55 (65.48-67.62) ml/min/1.73 m^2
same,eGFR Mean (95% CI),"[1]; No congestive cardiac failure history, Average UA ≥6, Baseline",66.51 (64.92-68.09) ml/min/1.73 m^2
same,eGFR Mean (95% CI),"[1]; No congestive cardiac failure history, Average UA ≥6, Month 12",66.77 (65.07-68.46) ml/min/1.73 m^2
same,eGFR Mean (95% CI),"[1]; No congestive cardiac failure history, Average UA ≥6, Month 18",66.07 (64.15-67.99) ml/min/1.73 m^2
same,eGFR Mean (95% CI),"[1]; No congestive cardiac failure history, Average UA ≥6, Month 24",65.54 (63.37-67.72) ml/min/1.73 m^2
same,eGFR Mean (95% CI),"[1]; No congestive cardiac failure history, Average UA ≥6, Month 30",65.30 (62.89-67.70) ml/min/1.73 m^2
same,eGFR Mean (95% CI),"[1]; No congestive cardiac failure history, Average UA ≥6, Month 36",65.27 (62.40-68.13) ml/min/1.73 m^2
same,eGFR Mean (95% CI),"[1]; No congestive cardiac failure history, Average UA ≥6, Month 42",63.38 (60.35-66.41) ml/min/1.73 m^2
same,eGFR Mean (95% CI),"[1]; No congestive cardiac failure history, Average UA ≥6, Month 48",63.38 (59.80-66.95) ml/min/1.73 m^2
same,eGFR Mean (95% CI),"[1]; No congestive cardiac failure history, Average UA ≥6, Month 54",66.44 (62.69-70.18) ml/min/1.73 m^2
same,eGFR Mean (95% CI),"[1]; No congestive cardiac failure history, Average UA ≥6, Month 60",63.14 (59.01-67.28) ml/min/1.73 m^2
same,eGFR Mean (95% CI),"[1]; No congestive cardiac failure history, Average UA ≥6, Week 2",66.92 (65.28-68.56) ml/min/1.73 m^2
same,eGFR Mean (95% CI),"[1]; SBP <130, Average UA <6, Baseline",65.08 (63.67-66.50) ml/min/1.73 m^2
same,eGFR Mean (95% CI),"[1]; SBP <130, Average UA <6, Month 3",66.19 (64.73-67.66) ml/min/1.73 m^2
same,eGFR Mean (95% CI),"[1]; SBP <130, Average UA <6, Month 6",66.44 (64.96-67.92) ml/min/1.73 m^2
same,eGFR Mean (95% CI),"[1]; SBP <130, Average UA <6, Month 12",67.55 (66.04-69.06) ml/min/1.73 m^2
same,eGFR Mean (95% CI),"[1]; SBP <130, Average UA <6, Month 18",67.41 (65.73-69.08) ml/min/1.73 m^2
same,eGFR Mean (95% CI),"[1]; SBP <130, Average UA <6, Month 24",67.26 (65.46-69.07) ml/min/1.73 m^2
same,eGFR Mean (95% CI),"[1]; SBP <130, Average UA <6, Month 30",68.14 (66.20-70.08) ml/min/1.73 m^2
same,eGFR Mean (95% CI),"[1]; SBP <130, Average UA <6, Month 36",67.41 (65.30-69.51) ml/min/1.73 m^2
same,eGFR Mean (95% CI),"[1]; SBP <130, Average UA <6, Month 42",67.67 (65.45-69.89) ml/min/1.73 m^2
same,eGFR Mean (95% CI),"[1]; SBP <130, Average UA <6, Month 48",67.55 (64.98-70.13) ml/min/1.73 m^2
same,eGFR Mean (95% CI),"[1]; SBP <130, Average UA <6, Month 54",67.54 (64.81-70.27) ml/min/1.73 m^2
same,eGFR Mean (95% CI),"[1]; SBP <130, Average UA <6, Month 60",66.85 (63.63-70.06) ml/min/1.73 m^2
same,eGFR Mean (95% CI),"[1]; SBP <130, Average UA <6, Week 2",65.12 (63.70-66.55) ml/min/1.73 m^2
same,eGFR Mean (95% CI),"[1]; SBP <130, Average UA ≥6, Baseline",61.00 (58.76-63.25) ml/min/1.73 m^2
same,eGFR Mean (95% CI),"[1]; SBP <130, Average UA ≥6, Month 3",62.77 (60.42-65.12) ml/min/1.73 m^2
same,eGFR Mean (95% CI),"[1]; SBP <130, Average UA ≥6, Month 6",62.65 (60.33-64.97) ml/min/1.73 m^2
same,eGFR Mean (95% CI),"[1]; SBP <130, Average UA ≥6, Month 12",62.21 (59.86-64.55) ml/min/1.73 m^2
same,eGFR Mean (95% CI),"[1]; SBP <130, Average UA ≥6, Month 18",62.34 (59.64-65.04) ml/min/1.73 m^2
same,eGFR Mean (95% CI),"[1]; SBP <130, Average UA ≥6, Month 24",60.72 (57.61-63.83) ml/min/1.73 m^2
same,eGFR Mean (95% CI),"[1]; SBP <130, Average UA ≥6, Month 30",62.43 (59.06-65.81) ml/min/1.73 m^2
same,eGFR Mean (95% CI),"[1]; SBP <130, Average UA ≥6, Month 36",61.08 (57.19-64.97) ml/min/1.73 m^2
same,eGFR Mean (95% CI),"[1]; SBP <130, Average UA ≥6, Month 42",60.98 (56.66-65.31) ml/min/1.73 m^2
same,eGFR Mean (95% CI),"[1]; SBP <130, Average UA ≥6, Month 48",64.66 (59.55-69.76) ml/min/1.73 m^2
same,eGFR Mean (95% CI),"[1]; SBP <130, Average UA ≥6, Month 54",64.80 (59.14-70.46) ml/min/1.73 m^2
same,eGFR Mean (95% CI),"[1]; SBP <130, Average UA ≥6, Month 60",65.01 (58.65-71.37) ml/min/1.73 m^2
same,eGFR Mean (95% CI),"[1]; SBP <130, Average UA ≥6, Week 2",62.24 (60.01-64.47) ml/min/1.73 m^2
same,prevention or treatment of chronic kidney disease when serum uric acid maintained below 6,"[1]; blood glucose ≥126 mg/dl, DBP ≤80 mm/Hg, SBP ≤130 mm/Hg, or no congestive cardiac failure",effectively prevented or treated
same,rate of gout flare,[2],0.63 per patient-year
same,drug-induced nephrotoxicity,[3]; Am Fam Physician. 2008 September,causes acute interstitial nephritis
same,effect on kidney function,[3]; Kaohsiung J Med Sci. 2005 May;21(5):228-32,worsens kidney function
same,acute renal failure reported more often,"[3]; post-marketing study, Arthritis Research & Therapy volume 21, Article number: 229 (2019)",3.3 times

# Source: patent US20250152592A1, “PHARMACEUTICAL COMPOSITION COMPRISING ALLOPURINOL, FEBUXOSTAT OR PHARMACEUTICALLY ACCEPTABLE SALT THEREOF FOR PREVENTION OR TREATMENT OF CHRONIC KIDNEY DISEASE IN SUBJECT HAVING HIGH SERUM URIC ACID CONCENTRATION” (Indream Healthcare Inc., priority 2022, published 2025)
